28 compounds from US20160185774A1, “Anti-Infective Compounds” (priority 2013, published 2016) can be followed below.

In brackets after ≈: the same amount, converted by molar mass. A value given as a limit tells only on which side of the number the result lay.

The assay deals with M. tuberculosis. The experiment in a line: microbe, parasite or virus in culture. In kind it is cell-based. The settings on record: Mycobacterium tuberculosis, 120 h; read-out: QUM (MIC80).

With `CCc1nc2ccc(C)cn2c1C(=O)NCc1ccc(N2CCC(c3ccc(Cl)cc3)CC2)cc1` [Compound 122], the MIC80 was less than 1 µM.
In the case of `CCc1nc2ccc(Br)cn2c1C(=O)NCc1ccc(N2CCN(c3ccc(C)cc3)CC2)cc1` [Compound 101], the MIC80 is less than 1 µM.
`CCc1nc2ccc(C(F)(F)F)cn2c1C(=O)NCc1ccc(N2CCN(c3ccc(Cl)cc3)CC2)cc1` [Compound 121]: the MIC80 is less than 1 µM.
`CCc1nc2c(F)cccn2c1C(=O)NCc1ccc(N2CCN(c3ccc(C)cc3)CC2)cc1` [Compound 31]: the MIC80 was less than 1 µM.
Regarding `CCc1nc2ccc(F)cn2c1C(=O)NCc1ccc(N2CCC(c3ccccc3)CC2)cc1` [Compound 165], the MIC80 was less than 1 µM.
Regarding `CCc1nc2c(C)cccn2c1C(=O)NCc1ccc(N2CCN(c3ccc(C(F)(F)F)cc3)CC2)cc1` [Compound 40], the MIC80 is less than 1 µM.
Turning to `CCc1nc2c(Cl)cccn2c1C(=O)NCc1ccc(N2CCC(c3ccc(C)cc3)CC2)cc1` [Compound 147], the MIC80 was less than 1 µM.
To `CCc1nc2c(Cl)cccn2c1C(=O)NCc1ccc(N2CCN(c3ccc(OC)cc3)CC2)cc1` [Compound 50] belongs less than 1 µM; to `CCc1nc2ccc(OC)cn2c1C(=O)NCc1ccc(N2CCN(c3ccc(OC(F)(F)F)cc3)CC2)cc1` [Compound 107], less than 1 µM.
Regarding `CCc1nc2ccc(OC)cn2c1C(=O)NCc1ccc(N2CCN(c3ccc(Cl)cc3)CC2)cc1` [Compound 128], the MIC80 is less than 1 µM.
Next, `CCc1nc2c(C(F)(F)F)cccn2c1C(=O)NCc1ccc(N2CCC(c3ccccc3)CC2)cc1` [Compound 112]: 1 to 20 µM (≈ 0.507 to 10.1 µg/mL); `Cc1ccc(C2CCN(c3ccc(CNC(=O)c4c(C)nc5c(F)cccn45)cc3)CC2)cc1` [Compound 309]: less than 1 µM; `CCc1nc2ccc(Br)cn2c1C(=O)NCc1ccc(N2CCN(c3ccc(Cl)cc3)CC2)cc1` [Compound 201]: less than 1 µM.
In the case of `CCc1nc2cc(Cl)ccn2c1C(=O)NCc1ccc(N2CC[C@H](Oc3ccc(Cl)cc3)C2)cc1` [Compound 343], the MIC80 is less than 1 µM.
On to `CCc1nc2ccc(Br)cn2c1C(=O)NCc1ccc(N2CCC(c3ccc(Cl)cc3)CC2)cc1` [Compound 159], for which the MIC80 is less than 1 µM.
For the compound `Cc1nc2ccc(F)cn2c1C(=O)NCc1ccc(N2CCC(c3ccc(OC(F)(F)F)cc3)CC2)cc1` [Compound 316], the MIC80 is less than 1 µM.
Turning to `CCc1nc2ccc(C)cn2c1C(=O)NCc1ccc(N2CCC(c3ccc(OC)cc3)CC2)cc1` [Compound 222], the MIC80 was less than 1 µM.
Consider `CCc1nc2cc(Cl)ccn2c1C(=O)NCc1ccc(C(=O)Nc2ccc(F)cc2)cc1` [Compound 302], for which the MIC80 was less than 1 µM.
For `CCc1nc2cc(Cl)ccn2c1C(=O)NCc1ccc(N2CCN(c3ccc(C)cc3)CC2)cc1` [Compound 35], the MIC80 was less than 1 µM.
For the compound `CCc1nc2cc(C)ccn2c1C(=O)NCc1ccc(N2CCN(c3ccc(Cl)cc3)CC2)cc1` [Compound 59], the MIC80 is less than 1 µM.
With `CCc1nc2cc(Cl)ccn2c1C(=O)NCc1ccc(N2CC[C@@H](Oc3ccc(Cl)cc3)C2)cc1` [Compound 341], the MIC80 is less than 1 µM.
With `CCc1nc2cc(Cl)ccn2c1C(=O)NCc1ccc2ncn(Cc3ccc(OC(F)(F)F)cc3)c2c1` [Compound 275], the MIC80 was greater than 20 µM.
Regarding `CCc1nc2cc(C(F)(F)F)ccn2c1C(=O)NCc1ccc(N2CCC(c3ccc(OC)cc3)CC2)cc1` [Compound 124], the MIC80 was less than 1 µM.
Turning to `CCc1nc2cc(Cl)ccn2c1C(=O)NCc1ccc2c(c1)ncn2C` [Compound 272], the MIC80 is 1 to 20 µM (≈ 0.368 to 7.36 µg/mL).
Take `CCc1nc2c(Cl)cccn2c1C(=O)NCc1ccc(N2CCN(c3ccccc3)CC2)cc1` [Compound 64]: the MIC80 is less than 1 µM.
As to `CCC1N=C2C=CC(Cl)=CN2C1C(=O)NCc1ccc2oc(C)nc2c1` (stereo not shown) [Compound 338], the MIC80 is less than 1 µM.
As for `CCc1nc2ccc(Cl)cn2c1C(=O)NCc1ccc(C(=O)CN2CCOCC2)cc1` [Compound 303], the MIC80 is less than 1 µM.
In the case of `CCc1nc2cc(F)ccn2c1C(=O)NCc1ccc(N2CCN(c3ccc(OC(F)(F)F)cc3)CC2)cc1` [Compound 116], the MIC80 is less than 1 µM.
